Measured values as given in ChEMBL document CHEMBL1201862, “PubChem BioAssay data set” (2004).
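Cells were grown in 96-well plates and exposed to each compound for 48 hours at five concentrations; endpoints were interpolated linearly between bracketing concentrations, or set to the highest concentration if not reached. Here, GI50 denotes the concentration required for 50% inhibition of growth.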 The source made the active and inactive calls. Cut-off read from the data, not from the text of the source: active = GI50 up to about 1.1 µM and inactive = higher.

Columns and labels:
Test in all cases: inhibition of tumour cell growth, NCI panel, 48 h
RXF 631 = system: RXF 631
XF498 = system: XF498
DMS-114 = system: DMS-114
M19-MEL = system: M19-MEL
DLD-1 = system: DLD-1
KM-20L2 = system: KM-20L2
SNB-78 = system: SNB-78
HOP-18 = system: HOP-18
DMS-273 = system: DMS-273

SMILES	GI50 (RXF 631)	GI50 (XF498)	GI50 (DMS-114)	GI50 (M19-MEL)	GI50 (DLD-1)	GI50 (KM-20L2)	GI50 (SNB-78)	GI50 (HOP-18)	GI50 (DMS-273)
NC(=S)N/N=C(/CC(=O)c1ccc([N+](=O)[O-])cc1)C(=O)Nc1ncc([N+](=O)[O-])s1	> 100 µM (inactive)	> 100 µM (inactive)	68.1 µM (inactive)	> 100 µM (inactive)	> 100 µM (inactive)	> 100 µM (inactive)	> 100 µM (inactive)		
C[N+]1=c2c3cccc4cccc(c(=O)n2CC1)c43	24.2 µM (inactive)		15.7 µM (inactive)	17.3 µM (inactive)	16.1 µM (inactive)	15.7 µM (inactive)	14.2 µM (inactive)	21.6 µM (inactive)	12.4 µM (inactive)
COc1cc2c3c(c1OC)-c1c(ccc4c1OCO4)CC3(C#N)N(C(=O)c1ccccc1)CC2 (centres undefined)	49.4 µM (inactive)	23 µM (inactive)	45.5 µM (inactive)	67.6 µM (inactive)	52.2 µM (inactive)	> 100 µM (inactive)	66.4 µM (inactive)		49.7 µM (inactive)
CC(C(=O)c1ccc(Cl)cc1)/C(=N/NC(=O)NN)C(=O)Nc1cccc(C(F)(F)F)c1 (centres undefined)	> 100 µM (inactive)	> 100 µM (inactive)	> 100 µM (inactive)	> 100 µM (inactive)	> 100 µM (inactive)	> 100 µM (inactive)	> 100 µM (inactive)	56.5 µM (inactive)	> 100 µM (inactive)
COc1cc(OC)cc(C(=O)Cc2c(C(=O)c3ccccc3)c3ccccc3n2C(=O)c2ccccc2)c1		21.4 µM (inactive)	15.5 µM (inactive)	32 µM (inactive)	20.3 µM (inactive)	50.6 µM (inactive)	38.3 µM (inactive)		27.4 µM (inactive)
COc1ccc(C2C(Cl)C(=O)N2NC(=O)Cc2ccccc2)cc1 (centres undefined)		> 100 µM (inactive)		> 100 µM (inactive)	> 100 µM (inactive)	> 100 µM (inactive)	> 100 µM (inactive)	> 100 µM (inactive)	> 100 µM (inactive)
CC(=O)C1C(=O)NC(=O)C1=O (centres undefined)		> 100 µM (inactive)	> 100 µM (inactive)	> 100 µM (inactive)		> 100 µM (inactive)	> 100 µM (inactive)	> 100 µM (inactive)	> 100 µM (inactive)
COc1ccc(/C=C(\Cl)c2ccc(OC)cc2)cc1			> 100 µM (inactive)	> 100 µM (inactive)	> 100 µM (inactive)	> 100 µM (inactive)			> 100 µM (inactive)
O=C1C2=C(c3ccccc31)C(c1cccc(Cl)c1)NC(S)=N2 (centres undefined)		> 100 µM (inactive)	> 100 µM (inactive)	> 100 µM (inactive)	> 100 µM (inactive)	> 100 µM (inactive)			80.9 µM (inactive)
O=C(/C=C/c1cccc([N+](=O)[O-])c1)c1ccc([N+](=O)[O-])cc1	> 100 µM (inactive)	> 100 µM (inactive)		> 100 µM (inactive)	> 100 µM (inactive)	> 100 µM (inactive)	> 100 µM (inactive)		> 100 µM (inactive)
N#Cc1ccc(C2OCC3CC=CCC3CO2)cc1 (centres undefined)	41.7 µM (inactive)	> 100 µM (inactive)	61.7 µM (inactive)	84.7 µM (inactive)	55 µM (inactive)	> 100 µM (inactive)	> 100 µM (inactive)	> 100 µM (inactive)	
CC(C)N(C(=O)C1(C)CC1)C(C)C	> 100 µM (inactive)	> 100 µM (inactive)	> 100 µM (inactive)	> 100 µM (inactive)	> 100 µM (inactive)	> 100 µM (inactive)	> 100 µM (inactive)	> 100 µM (inactive)	> 100 µM (inactive)
O=C(COc1ccc(Cl)cc1)N1N=C(c2ccc(Cl)cc2)CC1(O)c1ccccc1 (centres undefined)		27.8 µM (inactive)	18.4 µM (inactive)	24 µM (inactive)	13 µM (inactive)	15.4 µM (inactive)	> 38.5 µM (inactive)	39.2 µM (inactive)	15.9 µM (inactive)
C[P+]1(Cc2ccccc2)CCCC1		< 0.01 µM (active)	> 100 µM (inactive)	> 100 µM (inactive)	> 100 µM (inactive)	> 100 µM (inactive)	> 100 µM (inactive)	63.7 µM (inactive)	> 100 µM (inactive)
